From publication PMC11459959, “Discovery of new acetamide derivatives of 5-indole-1,3,4-oxadiazol-2-thiol as inhibitors of HIV-1 Tat-mediated viral transcription” (Antimicrobial Agents and Chemotherapy, 2024)

Legend:
[1] = tested on: PI-resistant HIV-1 strain 11803; experiment: microbe, parasite or virus in culture; type: cell-based; settings: Human immunodeficiency virus 1, TZM-bl
[2] = tested on: PI-resistant HIV-1 strain 11800; experiment: microbe, parasite or virus in culture; type: cell-based; settings: Human immunodeficiency virus 1, TZM-bl
[3] = tested on: NRTI-resistant HIV-1 strain 7396; experiment: microbe, parasite or virus in culture; type: cell-based; settings: Human immunodeficiency virus 1, TZM-bl
[4] = tested on: NRTI-resistant HIV-1 strain 7407; experiment: microbe, parasite or virus in culture; type: cell-based; settings: Human immunodeficiency virus 1, TZM-bl
[5] = tested on: NRTI-resistant HIV-1 strain 7406; experiment: microbe, parasite or virus in culture; type: cell-based; settings: Human immunodeficiency virus 1, TZM-bl
CDK9/Cyclin T = molecular target: T1, CDK9/Cyclin T (Homo sapiens, UniProt P50750); experiment: CDK9/Cyclin T kinase assay; type: biochemical; settings: in vitro kinase kit, serial dilutions
T1 construct: purchased BPS Bioscience
T1 sequence (P50750 whole entry): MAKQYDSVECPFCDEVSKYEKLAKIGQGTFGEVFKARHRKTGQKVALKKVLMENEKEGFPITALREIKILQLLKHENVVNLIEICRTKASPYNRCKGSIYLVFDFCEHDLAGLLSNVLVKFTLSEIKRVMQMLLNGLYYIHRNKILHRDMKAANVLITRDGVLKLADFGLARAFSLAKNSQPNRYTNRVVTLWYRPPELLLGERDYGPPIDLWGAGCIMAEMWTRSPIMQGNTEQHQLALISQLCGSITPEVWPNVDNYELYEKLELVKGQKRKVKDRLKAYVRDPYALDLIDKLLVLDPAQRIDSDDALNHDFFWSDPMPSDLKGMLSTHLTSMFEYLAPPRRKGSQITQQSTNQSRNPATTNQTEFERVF
T1 sequence (O60563 whole entry partner): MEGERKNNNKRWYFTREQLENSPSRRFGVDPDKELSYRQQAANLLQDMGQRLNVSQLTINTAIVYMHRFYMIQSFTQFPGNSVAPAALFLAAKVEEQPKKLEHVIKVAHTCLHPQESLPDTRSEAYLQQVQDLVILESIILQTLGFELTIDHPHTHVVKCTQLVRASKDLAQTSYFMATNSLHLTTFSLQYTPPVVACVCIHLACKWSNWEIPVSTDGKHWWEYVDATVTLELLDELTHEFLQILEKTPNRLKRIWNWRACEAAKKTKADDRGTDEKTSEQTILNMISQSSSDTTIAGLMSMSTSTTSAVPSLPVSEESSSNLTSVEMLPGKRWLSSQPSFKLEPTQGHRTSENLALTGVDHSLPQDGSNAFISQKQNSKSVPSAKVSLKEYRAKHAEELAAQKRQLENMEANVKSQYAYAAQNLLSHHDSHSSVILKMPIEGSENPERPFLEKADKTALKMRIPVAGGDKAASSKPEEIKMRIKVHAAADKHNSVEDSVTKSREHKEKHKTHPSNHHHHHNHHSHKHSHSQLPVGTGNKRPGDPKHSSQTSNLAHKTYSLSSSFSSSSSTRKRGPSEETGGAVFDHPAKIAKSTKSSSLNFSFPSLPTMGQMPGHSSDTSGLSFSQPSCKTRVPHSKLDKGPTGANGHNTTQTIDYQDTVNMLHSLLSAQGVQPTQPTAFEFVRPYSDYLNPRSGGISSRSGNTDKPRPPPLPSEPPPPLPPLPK
Description: In brief, 12.5 µL of the Master Mix (Kinase Assay Buffer 1 supplemented with ATP and CDK Substrate Peptide 2) was mixed with 2.5 µL of each test compound diluted serially. The mixture was then mixed with CDK9/Cyclin T Kinase (50 ng/10 µL diluted in 1× Kinase Assay Buffer 1) and incubated for 45 min. The kinase activity was measured using Kinase-Glo Max (Promega). A decreased level of luminescence relative to ATP concentration indicated kinase activity, which was expressed as the percent of DMSO control.

| Compound | EC50 [1] | EC50 [2] | EC50 [3] | EC50 [4] | EC50 [5] | inhibition of CDK9/Cyclin T kinase activity (CDK9/Cyclin T) |
| --- | --- | --- | --- | --- | --- | --- |
| Cc1[nH]c2ccc(-c3nnc(SCC(=O)N4CCCC4)o3)cc2c1C [Compound 13, 2-((5-(2,3-Dimethyl-1H-indol-5-yl)-1,3,4-oxadiazol-2-yl)thio)-1-(pyrrolidin-1-yl)ethan-1-one] | 160 ± 20 nM | 130 ± 100 nM | 150 ± 10 nM | 190 ± 10 nM | 160 ± 20 nM | did not exhibit |
| Cc1[nH]c2ccc(-c3nnc(SCC(=O)N4CCCCC4)o3)cc2c1C [Compound 9, 2-((5-(2,3-Dimethyl-1H-indol-5-yl)-1,3,4-oxadiazol-2-yl)thio)-1-(piperidin-1-yl)ethan-1-one] | 70 ± 10 nM | 80 ± 10 nM | 70 nM | 70 ± 10 nM | 90 ± 10 nM | did not exhibit |
